Experimental data: patent US20250368666A1, “INDAZOLE COMPOUNDS” (TYRA BIOSCIENCES, INC., priority 2022, published 2025)

Legend:
FGFR1 = target: T1, FGFR1 (Homo sapiens, UniProt P11362); assay: Kinase binding assay (kinase-tagged T7 phage, affinity beads, qPCR), Kd; settings: read-out: FGFR1 (Kd nM)
T1 construct: made in house; host or cells: E. coli (BL21-derived), T7 phage
How it was run: (§1)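 T7 phage displaying each kinase, grown in a BL21-derived E. coli host at 32° C until lysis, competed with test compound for biotinylated ligand immobilised on streptavidin beads. Bead-bound kinase was eluted and quantified by qPCR. Kd came from an 11-point 3-fold dilution series fitted to the Hill equation with slope fixed at −1.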

FGFR2 = target: T2, FGFR2 (Homo sapiens, UniProt P21802); assay: as above; settings: read-out: FGFR2 (Kd nM)
T2 construct: made in house; host or cells: E. coli (BL21-derived), T7 phage
How it was run: as §1

FGFR3 = target: T3, FGFR3 (Homo sapiens, UniProt P22607); assay: as above; settings: read-out: FGFR3 (Kd nM)
T3 construct: made in house; host or cells: E. coli (BL21-derived), T7 phage
How it was run: as §1

FGFR3 (V555M) = target: T4, FGFR3 (V555M) (Homo sapiens, UniProt P22607, V555M); assay: as above; settings: V555M mutant; read-out: FGFR3 (V555M) (Kd nM)
T4 construct: made in house; host or cells: E. coli (BL21-derived), T7 phage
How it was run: as §1

FGFR4 = target: T5, FGFR4 (Homo sapiens, UniProt P22455); assay: as above; settings: read-out: FGFR4 (Kd nM)
T5 construct: made in house; host or cells: E. coli (BL21-derived), T7 phage
How it was run: as §1

[1] = system: KATO-III cell line (FGFR2 amplification); assay: Cancer cell line cell viability assay (Cell Titer-Glo), 72 hr; assay type: cell-based; settings: Homo sapiens, KATO III
How it was run: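 Following overnight attachment, each line receives compound in triplicate across nine 4-fold dilutions starting at 3 μM, with DMSO backfill for equal solvent. Luminescence after Cell Titer-Glo 2.0 addition gives percent viability versus DMSO control, fitted by 4-parameter logistic for IC50.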

[2] = system: KG-1 cell line (FGFR 1-fusion); assay: as above; assay type: cell-based; settings: Homo sapiens, KG-1, KG-1 cell line (FGFR1-fusion)
How it was run: (§2)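 5,000-20,000 cells/well o/n; cpd 9-pt 4x dil from 3 μM, n=3; 37° C/5% CO2; CTG 2.0 lumi; % DMSO ctrl; 4PL IC50.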

[3] = system: RT112/84 cell line (FGFR3-fusion); assay: as above; assay type: cell-based; settings: Homo sapiens, RT112/84, RT112/84 cell line (FGFR3-fusion)
How it was run: as §2

[4] = system: HuH7 cell line (FGF19 amplification); assay: Cancer cell line cell viability assay (Cell Titer-Glo), 120 hr; assay type: cell-based; settings: Homo sapiens, Huh-7
How it was run: as §2

T1 sequence (P11362 22-822): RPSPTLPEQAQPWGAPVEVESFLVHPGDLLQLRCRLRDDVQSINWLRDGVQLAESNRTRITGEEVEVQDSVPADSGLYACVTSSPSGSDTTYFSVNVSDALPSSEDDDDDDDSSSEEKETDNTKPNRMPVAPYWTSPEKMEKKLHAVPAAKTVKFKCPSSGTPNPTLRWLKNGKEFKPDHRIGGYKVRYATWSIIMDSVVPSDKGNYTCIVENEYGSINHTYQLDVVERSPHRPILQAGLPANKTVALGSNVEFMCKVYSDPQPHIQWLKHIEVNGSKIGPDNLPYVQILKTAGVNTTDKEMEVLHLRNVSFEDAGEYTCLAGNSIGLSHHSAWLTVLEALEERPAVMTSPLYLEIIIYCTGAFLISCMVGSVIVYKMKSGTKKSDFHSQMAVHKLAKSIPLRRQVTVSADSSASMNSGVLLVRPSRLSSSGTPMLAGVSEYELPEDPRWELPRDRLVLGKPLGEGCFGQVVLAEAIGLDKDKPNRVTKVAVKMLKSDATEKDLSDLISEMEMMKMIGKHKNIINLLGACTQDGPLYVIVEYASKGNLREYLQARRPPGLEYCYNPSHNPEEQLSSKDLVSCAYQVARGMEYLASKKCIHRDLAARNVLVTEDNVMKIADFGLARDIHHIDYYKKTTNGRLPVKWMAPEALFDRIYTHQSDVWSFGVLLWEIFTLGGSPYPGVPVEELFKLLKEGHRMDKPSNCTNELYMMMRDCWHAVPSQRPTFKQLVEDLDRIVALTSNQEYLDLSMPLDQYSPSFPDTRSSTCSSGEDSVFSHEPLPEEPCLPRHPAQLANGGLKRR
T5 sequence (P22455 22-802): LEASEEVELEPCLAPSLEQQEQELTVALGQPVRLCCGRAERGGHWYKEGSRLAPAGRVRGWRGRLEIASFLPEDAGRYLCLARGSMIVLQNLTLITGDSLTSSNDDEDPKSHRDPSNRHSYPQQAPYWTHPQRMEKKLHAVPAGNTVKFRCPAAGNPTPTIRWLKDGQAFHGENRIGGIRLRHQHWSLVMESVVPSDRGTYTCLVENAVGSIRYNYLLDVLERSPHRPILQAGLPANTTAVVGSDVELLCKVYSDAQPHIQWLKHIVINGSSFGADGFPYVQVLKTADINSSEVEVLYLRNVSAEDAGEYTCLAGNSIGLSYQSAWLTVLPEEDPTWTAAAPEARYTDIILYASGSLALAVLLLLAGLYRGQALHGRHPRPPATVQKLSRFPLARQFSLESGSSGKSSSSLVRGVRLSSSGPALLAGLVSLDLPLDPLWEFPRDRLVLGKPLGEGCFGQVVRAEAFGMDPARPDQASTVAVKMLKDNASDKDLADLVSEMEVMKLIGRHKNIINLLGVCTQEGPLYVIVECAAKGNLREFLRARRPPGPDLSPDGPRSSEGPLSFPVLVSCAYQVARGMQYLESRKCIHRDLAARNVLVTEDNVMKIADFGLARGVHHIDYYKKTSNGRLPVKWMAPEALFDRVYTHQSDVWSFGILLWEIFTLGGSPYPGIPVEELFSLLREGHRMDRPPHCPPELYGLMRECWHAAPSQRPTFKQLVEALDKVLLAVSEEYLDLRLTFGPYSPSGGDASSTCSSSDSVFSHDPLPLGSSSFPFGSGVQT
T4 sequence (P22607 23-806 V555M): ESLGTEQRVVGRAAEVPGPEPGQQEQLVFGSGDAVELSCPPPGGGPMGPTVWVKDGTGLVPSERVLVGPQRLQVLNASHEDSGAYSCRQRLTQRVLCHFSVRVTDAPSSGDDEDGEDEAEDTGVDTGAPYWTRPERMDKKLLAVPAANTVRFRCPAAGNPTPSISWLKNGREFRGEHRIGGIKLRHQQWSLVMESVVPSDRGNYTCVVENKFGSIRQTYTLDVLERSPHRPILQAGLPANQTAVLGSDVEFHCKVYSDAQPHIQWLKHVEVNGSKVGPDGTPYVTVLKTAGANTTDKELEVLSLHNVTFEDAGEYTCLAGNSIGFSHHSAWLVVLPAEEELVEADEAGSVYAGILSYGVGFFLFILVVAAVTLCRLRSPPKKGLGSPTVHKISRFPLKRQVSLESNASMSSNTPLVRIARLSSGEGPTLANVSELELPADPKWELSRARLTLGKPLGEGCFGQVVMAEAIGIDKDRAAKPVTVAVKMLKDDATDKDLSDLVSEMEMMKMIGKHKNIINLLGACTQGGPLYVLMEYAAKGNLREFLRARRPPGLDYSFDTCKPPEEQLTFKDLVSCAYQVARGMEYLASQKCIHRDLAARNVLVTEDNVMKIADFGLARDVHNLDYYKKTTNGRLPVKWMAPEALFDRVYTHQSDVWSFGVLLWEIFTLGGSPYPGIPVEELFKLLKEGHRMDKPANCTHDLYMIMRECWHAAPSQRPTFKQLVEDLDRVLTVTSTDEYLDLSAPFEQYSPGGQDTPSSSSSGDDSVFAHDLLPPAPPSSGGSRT
T2 sequence (P21802 22-821): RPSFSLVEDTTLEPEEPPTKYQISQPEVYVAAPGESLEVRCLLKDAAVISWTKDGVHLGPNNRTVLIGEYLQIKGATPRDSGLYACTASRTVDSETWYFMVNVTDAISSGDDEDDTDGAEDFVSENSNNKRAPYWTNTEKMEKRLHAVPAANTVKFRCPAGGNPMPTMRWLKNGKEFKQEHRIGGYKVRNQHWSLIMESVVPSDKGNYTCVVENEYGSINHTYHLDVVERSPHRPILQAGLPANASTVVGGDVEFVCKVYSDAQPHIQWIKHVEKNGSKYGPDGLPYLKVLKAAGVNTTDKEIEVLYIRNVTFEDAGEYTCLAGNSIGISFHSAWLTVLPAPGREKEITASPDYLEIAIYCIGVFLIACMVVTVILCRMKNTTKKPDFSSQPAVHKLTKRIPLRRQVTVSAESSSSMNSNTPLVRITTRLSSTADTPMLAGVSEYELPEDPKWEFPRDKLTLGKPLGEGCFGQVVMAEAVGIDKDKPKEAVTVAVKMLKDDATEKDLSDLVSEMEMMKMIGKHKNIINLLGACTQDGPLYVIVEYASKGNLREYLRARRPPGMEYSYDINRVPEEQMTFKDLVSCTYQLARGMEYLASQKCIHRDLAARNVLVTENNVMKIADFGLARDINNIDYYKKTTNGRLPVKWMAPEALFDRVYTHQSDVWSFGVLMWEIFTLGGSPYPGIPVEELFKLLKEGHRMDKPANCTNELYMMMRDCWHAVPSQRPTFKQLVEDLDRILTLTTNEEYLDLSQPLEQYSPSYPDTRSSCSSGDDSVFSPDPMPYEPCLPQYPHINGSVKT
T3 sequence (P22607 23-806): as the sequence (P22607 23-806 V555M) above, with M533V counted along it

Row | Structure (SMILES) | Kd (FGFR1) | Kd (FGFR2) | Kd (FGFR3) | Kd (FGFR3 (V555M)) | Kd (FGFR4) | IC50 [1] | IC50 [2] | IC50 [3] | IC50 [4]
1 | C[C@@H](Oc1cc2c(-c3cnc(N4CC(C)(NCC5CC5)C4)c(C#N)c3)n[nH]c2cc1F)c1c(Cl)cncc1Cl [Example 134, (R)-2-(3-((cyclopropylmethyl)a-mino)-3-methylazetidin-1-yl)-5-(5-(1-(3,5-dichloropyridin-4-yl)ethoxy)-6-fluoro-1H-indazol-3-yl)nicotinonitrile] | 50 to 300 nM | 50 to 300 nM | 1 to 50 nM | 1 to 50 nM | 1 to 50 nM | 200 to 1000 nM | 200 to 1000 nM | 50 to 200 nM | 50 to 200 nM
2 | C[C@@H](Oc1ccc2[nH]nc(-c3cnc(N4CC(C)(CN5CCOCC5)C4)c(C#N)c3)c2c1)c1c(Cl)cncc1Cl [Example 122, (R)-5-(5-(1-(3,5-dichloropyridin-4-yl)ethoxy)-1H-indazol-3-yl)-2-(3-methyl-3-(morpholinomethyl)aze-tidin-1-yl)nicotinonitrile] | 50 to 300 nM | 50 to 300 nM | 1 to 50 nM | 1 to 50 nM | 1 to 50 nM | 200 to 1000 nM | 200 to 1000 nM | 50 to 200 nM | 50 to 200 nM
3 | C[C@@H](Oc1ccc2[nH]nc(-c3cnc(N4CC(C)(N[C@H]5CCOC5)C4)c(C#N)c3)c2c1)c1c(Cl)cncc1Cl [Example 20, 5-(5-((R)-1-(3,5-dichloropyridin-4-yl)ethoxy)-1H-indazol-3-yl)-2-(3-methyl-3-(((S)-tetrahydrofuran-3-yl)amino)azetidin-1-yl)nicotinonitrile] | 1 to 50 nM | 1 to 50 nM | 1 to 50 nM | 1 to 50 nM | 1 to 50 nM | 50 to 200 nM | 200 to 1000 nM | 50 to 200 nM | 0.1 to 50 nM
4 | COc1cc2[nH]nc(-c3cnc(N4CC(C)(CNC(C)C)C4)c(C#N)c3)c2cc1O[C@H](C)c1c(Cl)cncc1Cl [Example 50, (R)-5-(5-(1-(3,5-dichloropyridin-4-yl)ethoxy)-6-methoxy-1H-indazol-3-yl)-2-(3-((isopropylamino)methyl)-3-methylazetidin-1-yl)nicotinonitrile] | 1 to 50 nM | 1 to 50 nM | 1 to 50 nM | 1 to 50 nM | 1 to 50 nM | 0.1 to 50 nM | 0.1 to 50 nM | 0.1 to 50 nM | 0.1 to 50 nM
5 | COc1cc2[nH]nc(-c3cnc(N4CC(C)(C)C4)nc3)c2cc1O[C@H](C)c1c(Cl)cncc1Cl [Example 61, 5-[(1R)-1-(3,5-dichloro-4-pyridyl)ethoxy]-3-[2-(3,3-dimethylazetidin-1-yl)pyrimidin-5-yl]-6-methoxy-1H-indazole] | 1 to 50 nM | 1 to 50 nM | 1 to 50 nM | 1 to 50 nM | 1 to 50 nM | 50 to 200 nM | 50 to 200 nM | 0.1 to 50 nM | 0.1 to 50 nM
6 | Cc1ncc(Cl)c([C@@H](C)Oc2ccc3[nH]nc(-c4cnc(N5CC(C)(NC6CCC6)C5)c(C#N)c4)c3c2)c1Cl [Example 19, 2-[3-(cyclobutylamino)-3-methyl-azetidin-1-yl]-5-[5-[(1R)-1-(3,5-dichloro-2-methyl-4-pyridyl)ethoxy]-1H-indazol-3-yl]pyridine-3-carbonitrile] | 50 to 300 nM | 300 to 1000 nM | 1 to 50 nM | 1 to 50 nM | 1 to 50 nM | > 1000 nM | 200 to 1000 nM | 200 to 1000 nM | 0.1 to 50 nM
7 | C[C@@H](Oc1ccc2[nH]nc(-c3cnc(N4CC(C)(N5CC(C)(O)C5)C4)c(C#N)c3)c2c1)c1c(Cl)cncc1Cl [Example 100, (R)-5-(5-(1-(3,5-dichloropyridin-4-yl)ethoxy)-1H-indazol-3-yl)-2-(3-hydroxy-3,3′-dimethyl-[1,3′-biazetidin]-1′-yl)nicotinonitrile] | 1 to 50 nM | 1 to 50 nM | 1 to 50 nM | 1 to 50 nM | 1 to 50 nM | 50 to 200 nM | 50 to 200 nM | 0.1 to 50 nM | 0.1 to 50 nM
8 | COc1cc2[nH]nc(-c3cnc(N4CC(C)(NCP(C)(C)=O)C4)c(C#N)c3)c2cc1O[C@H](C)c1c(Cl)cncc1Cl [Example 329, 5-[5-[(1R)-1-(3,5-dichloro-4-pyridyl)ethoxy]-6-methoxy-1H-indazol-3-yl]-2-[3-(dimethyl-phosphoryl-methylamino)-3-methyl-azetidin-1-yl]pyridine-3-carbonitrile] | 1 to 50 nM | 1 to 50 nM | 1 to 50 nM | 1 to 50 nM | 1 to 50 nM | 200 to 1000 nM | > 1000 nM | 50 to 200 nM | 0.1 to 50 nM
9 | CC[C@@H](C)NC1(C)CN(c2ncc(-c3n[nH]c4cc(OC)c(O[C@H](C)c5c(Cl)cncc5Cl)cc34)cc2C#N)C1 [Example 145, 5-[5-[(1R)-1-(3,5-dichloro-4-pyridyl)ethoxy]-6-methoxy-1H-indazol-3-yl]-2-[3-methyl-3-[[(1R)-1-methylpropyl]amino]aze-tidin-1-yl]pyridine-3-carbonitrile] | 1 to 50 nM | 1 to 50 nM | 1 to 50 nM | 1 to 50 nM | 1 to 50 nM | 50 to 200 nM | 50 to 200 nM | 0.1 to 50 nM | 0.1 to 50 nM
10 | COc1cc2[nH]nc(-c3cnc(N4CC(C)(N5CC(C)(O)C5)C4)c(C#N)c3)c2cc1O[C@H](C)c1c(Cl)cncc1Cl [Example 99, (R)-5-(5-(1-(3,5-dichloropyridin-4-yl)ethoxy)-6-methoxy-1H-indazol-3-yl)-2-(3-hydroxy-3,3′-dimethyl-[1,3′-biazetidin]-1′-yl)nicotinonitrile] | 1 to 50 nM | 1 to 50 nM | 1 to 50 nM | 1 to 50 nM | 1 to 50 nM | 0.1 to 50 nM | 0.1 to 50 nM | 0.1 to 50 nM | 0.1 to 50 nM

The next lines start with the values.

Row | Kd (FGFR1) | Kd (FGFR2) | Kd (FGFR3) | Kd (FGFR3 (V555M)) | Kd (FGFR4) | IC50 [1] | IC50 [2] | IC50 [3] | IC50 [4] | Structure (SMILES)
11 | 1 to 50 nM | 1 to 50 nM | 1 to 50 nM | 1 to 50 nM | 1 to 50 nM | 50 to 200 nM | 200 to 1000 nM | 0.1 to 50 nM | 0.1 to 50 nM | COc1cc2[nH]nc(-c3cnc(N4CC(C)(N5CCS(=O)(=O)CC5)C4)c(C#N)c3)c2cc1O[C@H](C)c1c(Cl)cncc1Cl [Example 334, (R)-5-(5-(1-(3,5-dichloropyridin-4-yl)ethoxy)-6-methoxy-1H-indazol-3-yl)-2-(3-(1,1-dioxidothio-morpholino)-3-methylazetidin-1-yl)nicotinonitrile]
12 | 1 to 50 nM | 1 to 50 nM | 1 to 50 nM |  | 1 to 50 nM | 0.1 to 50 nM | 0.1 to 50 nM | 0.1 to 50 nM | 0.1 to 50 nM | COc1cc2[nH]nc(-c3cnc(N4CC(CC#N)(N(C)C)C4)c(C#N)c3)c2cc1O[C@H](C)c1c(Cl)cncc1Cl [Example 352, (R)-2-(3-(cyanomethyl)-3-(dimethylamino)-azetidin-1-yl)-5-(5-(1-(3,5-dichloropyridin-4-yl)ethoxy)-6-methoxy-1H-indazol-3-yl)nicotinonitrile]
13 | 1 to 50 nM | 1 to 50 nM | 1 to 50 nM |  | 1 to 50 nM | 50 to 200 nM | > 1000 nM | 50 to 200 nM | 0.1 to 50 nM | COc1cc2[nH]nc(-c3cnc(N4CC(N)(CCS(C)(=O)=O)C4)c(C#N)c3)c2cc1O[C@H](C)c1c(Cl)cncc1Cl [Example 364, (R)-2-(3-amino-3-(2-(methylsulfonyl)ethyl)azetidin-1-yl)-5-(5-(1-(3,5-dichloropyridin-4-yl)ethoxy)-6-methoxy-1H-indazol-3-yl)nicotinonitrile]
14 | 1 to 50 nM | 1 to 50 nM | 1 to 50 nM |  | 1 to 50 nM | 50 to 200 nM | 200 to 1000 nM | 0.1 to 50 nM | 0.1 to 50 nM | COc1cc2[nH]nc(-c3cnc(N4CC(N)(CC=C(C)C)C4)c(C#N)c3)c2cc1O[C@H](C)c1c(Cl)cncc1Cl [Example 363, (R)-2-(3-amino-3-(3-methylbut-2-en-1-yl)azetidin-1-yl)-5-(5-(1-(3,5-dichloropyridin-4-yl)ethoxy)-6-methoxy-1H-indazol-3-yl)nicotinonitrile]
15 | 1 to 50 nM | 1 to 50 nM | 1 to 50 nM |  | 1 to 50 nM | 50 to 200 nM | 50 to 200 nM | 0.1 to 50 nM | 0.1 to 50 nM | COc1cc2[nH]nc(-c3cnc(N4CC(N)(C(C)C)C4)c(C#N)c3)c2cc1O[C@H](C)c1c(Cl)cncc1Cl [Example 353, (R)-2-(3-amino-3-isopropylazetidin-1-yl)-5-(5-(1-(3,5-dichloropyridin-4-yl)ethoxy)-6-methoxy-1H-indazol-3-yl)nicotinonitrile]
